The source of these data is US20070112043A1, “Acylated and non-acylated imidazo[2,1-b]-1,3,4,-thiadiazole-2-sulfonamides, and uses thereof” (priority 2003, published 2007).

Molecules are shown by their SMILES.

A short description of the data set: physchem. The conditions noted are these: water.
Experimental: Alternatively, the sodium salt can be prepared in situ by dissolving the free acid in phosphate buffered saline (PBS) that has been buffered to a pH of 7.4. The solubility and stability of these solutions can be improved by the use of an aqueous soluble co-solvent such as, but not limited to HPCD. This solubility can be further improved by the addition of surfactants such as PEG 400. In general, the free acid is suspended in 10 wt/vol % HPDC (10 g dissolved in 100 mL water) and treated with 0.5M PBS (pH 7.4) such that the volumes are in a ratio of 75:25.
For `NS(=O)(=O)c1nn2cc(-c3ccccc3F)nc2s1` [Compound 52], the solubility (usually the dissolved amount per volume that the medium holds) was < 500 µg/mL.

Regarding `NS(=O)(=O)c1nn2cc(-c3cccc(F)c3)nc2s1` [Compound 53], the solubility was < 500 µg/mL.

Turning to `NS(=O)(=O)c1nn2cc(-c3ccc(F)cc3)nc2s1` [Compound 54], the solubility was < 500 µg/mL.

With `NS(=O)(=O)c1nn2cc(-c3ccc(F)c(F)c3)nc2s1` [Compound 55], the solubility is < 500 µg/mL.

With `NS(=O)(=O)c1nn2cc(-c3ccc(Cl)cc3)nc2s1` [Compound 56], the solubility is < 500 µg/mL.

Take `NS(=O)(=O)c1nn2cc(-c3ccc(Cl)c(Cl)c3)nc2s1` [Compound 57]: the solubility is < 500 µg/mL.

For `NS(=O)(=O)c1nn2cc(-c3ccc(Cl)c(Cl)c3Cl)nc2s1` [Compound 58], the solubility is < 500 µg/mL.

Consider `NS(=O)(=O)c1nn2cc(-c3cccc(Br)c3)nc2s1` [Compound 59], for which the solubility is < 500 µg/mL.

As for `NS(=O)(=O)c1nn2cc(-c3ccc(Br)cc3)nc2s1` [Compound 60], the solubility was < 500 µg/mL.

Turning to `COc1cccc(-c2cn3nc(S(N)(=O)=O)sc3n2)c1` [Compound 61], the solubility is < 500 µg/mL.

`COc1ccc(-c2cn3nc(S(N)(=O)=O)sc3n2)cc1` [Compound 62]: the solubility was < 500 µg/mL.

On to `COc1ccc(OC)c(-c2cn3nc(S(N)(=O)=O)sc3n2)c1` [Compound 63], for which the solubility was < 500 µg/mL.

On to `COc1ccc(-c2cn3nc(S(N)(=O)=O)sc3n2)c(OC)c1` [Compound 64], for which the solubility is < 500 µg/mL.

Consider `NS(=O)(=O)c1nn2cc(-c3ccc4c(c3)OCO4)nc2s1` [Compound 65], for which the solubility is < 500 µg/mL.

For the molecule `NS(=O)(=O)c1nn2cc(-c3cccc(OC(F)(F)F)c3)nc2s1` [Compound 66], the solubility is < 500 µg/mL.

Consider `NS(=O)(=O)c1nn2cc(-c3ccc(OC(F)(F)F)cc3)nc2s1` [Compound 67], for which the solubility was < 500 µg/mL.

Consider `NS(=O)(=O)c1nn2cc(-c3ccc(OCCO)cc3)nc2s1` [Compound 68], for which the solubility was < 500 µg/mL.

As to `CC(=O)OCCOc1ccc(-c2cn3nc(S(N)(=O)=O)sc3n2)cc1` [Compound 69], the solubility is < 500 µg/mL.

Consider `NS(=O)(=O)c1nn2cc(-c3ccc(OCCC(F)(F)F)cc3)nc2s1` [Compound 70], for which the solubility was < 500 µg/mL.

With `COCCOCCOc1ccc(-c2cn3nc(S(N)(=O)=O)sc3n2)cc1` [Compound 71], the solubility is < 500 µg/mL.

With `NS(=O)(=O)c1nn2cc(-c3ccc(OCCOCc4ccccc4)cc3)nc2s1` [Compound 72], the solubility is < 500 µg/mL.

For `NS(=O)(=O)c1nn2cc(-c3ccc(OCCCOCc4ccccc4)cc3)nc2s1` [Compound 73], the solubility is < 500 µg/mL.

In the case of `NS(=O)(=O)c1nn2cc(-c3cccc([N+](=O)[O-])c3)nc2s1` [Compound 74], the solubility was < 500 µg/mL.

With `NS(=O)(=O)c1nn2cc(-c3ccc(Cl)c([N+](=O)[O-])c3)nc2s1` [Compound 75], the solubility was < 500 µg/mL.

In the case of `COC(=O)c1ccc(-c2cn3nc(S(N)(=O)=O)sc3n2)cc1` [Compound 76], the solubility is < 500 µg/mL.

`N#Cc1cccc(-c2cn3nc(S(N)(=O)=O)sc3n2)c1` [Compound 77]: the solubility is < 500 µg/mL.

In the case of `N#Cc1ccc(-c2cn3nc(S(N)(=O)=O)sc3n2)cc1` [Compound 78], the solubility is < 500 µg/mL.

With `Cc1ccc(-c2cn3nc(S(N)(=O)=O)sc3n2)cc1` [Compound 79], the solubility was < 500 µg/mL.

As to `Cc1ccc(-c2cn3nc(S(N)(=O)=O)sc3n2)c(C)c1` [Compound 80], the solubility is < 500 µg/mL.

As to `CC(C)(C)c1ccc(-c2cn3nc(S(N)(=O)=O)sc3n2)cc1` [Compound 81], the solubility is < 500 µg/mL.

Consider `CC(C)(C)c1cc(-c2cn3nc(S(N)(=O)=O)sc3n2)c2c(c1)C(C)(C)CC2` [Compound 82], for which the solubility was < 500 µg/mL.

As to `Cc1ccc(C23CC4CC(CC2C4)C3)cc1-c1cn2nc(S(N)(=O)=O)sc2n1` [Compound 83], the solubility is < 500 µg/mL.

Take `NS(=O)(=O)c1nn2cc(-c3ccc(C(F)(F)F)cc3)nc2s1` [Compound 84]: the solubility was < 500 µg/mL.

As to `NS(=O)(=O)c1nn2cc(-c3cc(C(F)(F)F)ccc3Cl)nc2s1` [Compound 85], the solubility is < 500 µg/mL.

`NS(=O)(=O)c1nn2cc(-c3cc(C(F)(F)F)cc(C(F)(F)F)c3)nc2s1` [Compound 86]: the solubility is < 500 µg/mL.

For the molecule `CC(C)(C)c1cc(-c2cn3nc(S(N)(=O)=O)sc3n2)cc(C(C)(C)C)c1` [Compound 87], the solubility is < 500 µg/mL.

Regarding `CC1(C)CCC(C)(C)c2cc(-c3cn4nc(S(N)(=O)=O)sc4n3)ccc21` [Compound 88], the solubility is < 500 µg/mL.

`CC(=O)N[C@H](C)c1ccc(-c2cn3nc(S(N)(=O)=O)sc3n2)cc1` [Compound 90]: the solubility is < 500 µg/mL.

For `NS(=O)(=O)c1nn2cc(C(F)(F)F)nc2s1` [Compound 91], the solubility is < 500 µg/mL.

In the case of `NS(=O)(=O)c1nn2cc(C34CC5CC(CC(C5)C3)C4)nc2s1` [Compound 92], the solubility is < 500 µg/mL.

Turning to `NS(=O)(=O)c1nn2cc(-c3cccc4ccccc34)nc2s1` [Compound 93], the solubility is < 500 µg/mL.

`NS(=O)(=O)c1nn2cc(-c3ccc4ccccc4c3)nc2s1` [Compound 94]: the solubility was < 500 µg/mL.

With `NS(=O)(=O)c1nn2cc(-c3ccc(N4CCCCC4)cc3)nc2s1` [Compound 96], the solubility was < 500 µg/mL.

In the case of `NS(=O)(=O)c1nn2cc(-c3ccc(-c4ccccc4)cc3)nc2s1` [Compound 98], the solubility was < 500 µg/mL.

Turning to `NS(=O)(=O)c1nn2cc(-c3ccc(-c4c(F)c(F)c(F)c(F)c4F)cc3)nc2s1` [Compound 99], the solubility is < 500 µg/mL.

In the case of `COc1ccccc1-c1ccc(-c2cn3nc(S(N)(=O)=O)sc3n2)cc1` [Compound 100], the solubility is < 500 µg/mL.

In the case of `COc1ccc(-c2ccc(-c3cn4nc(S(N)(=O)=O)sc4n3)cc2)cc1` [Compound 101], the solubility was < 500 µg/mL.

On to `NS(=O)(=O)c1nn2cc(-c3ccc(-c4cccc(OC(F)(F)F)c4)cc3)nc2s1` [Compound 102], for which the solubility was < 500 µg/mL.

For `NS(=O)(=O)c1nn2cc(-c3ccc(-c4ccc5c(c4)OCO5)cc3)nc2s1` [Compound 103], the solubility is < 500 µg/mL.

For the molecule `NS(=O)(=O)c1nn2cc(-c3ccc(-c4ccccc4C(F)(F)F)cc3)nc2s1` [Compound 104], the solubility was < 500 µg/mL.

As to `NS(=O)(=O)c1nn2cc(-c3ccc(-c4ccc(C(F)(F)F)cc4)cc3)nc2s1` [Compound 105], the solubility was < 500 µg/mL.

Regarding `NS(=O)(=O)c1nn2cc(-c3ccc(-c4cc(C(F)(F)F)cc(C(F)(F)F)c4)cc3)nc2s1` [Compound 106], the solubility is < 500 µg/mL.

Consider `NS(=O)(=O)c1nn2cc(-c3ccc(-c4cccs4)cc3)nc2s1` [Compound 107], for which the solubility is < 500 µg/mL.

On to `NS(=O)(=O)c1nn2cc(-c3ccc(-c4ccsc4)cc3)nc2s1` [Compound 108], for which the solubility is < 500 µg/mL.

Regarding `COc1ccc(-c2cccc(-c3cn4nc(S(N)(=O)=O)sc4n3)c2)cc1` [Compound 109], the solubility was < 500 µg/mL.

For the molecule `NS(=O)(=O)c1nn2cc(-c3ccc(Oc4ccccc4)cc3)nc2s1` [Compound 110], the solubility was < 500 µg/mL.

On to `NS(=O)(=O)c1nn2cc(-c3ccc(Oc4ccc(F)cc4)cc3)nc2s1` [Compound 111], for which the solubility is < 500 µg/mL.
